Laboratory results: article PMC7456963, “HPLC-Based Activity Profiling for Antiprotozoal Compounds in Croton gratissimus and Cuscuta hyalina” (Frontiers in Pharmacology, 2020)
Where “and” joins values, the source holds several entries; their conditions need not be identical. Equal entries are not always repeated. Where two headings read alike, the source gives them in different places.

What was measured:
[1] = tested on: P. falciparum NF54 erythrocytic stages; test: Activity against Plasmodium falciparum (3H-hypoxanthine incorporation); type: cell-based; settings: for IC50: read-out: IC50 P. falciparum; for Selectivity index (SI): IC50 in L6 cells divided by IC50 in P. falciparum: L6 cells vs P. falciparum NF54
Procedure: In vitro activity against the erythrocytic stages of P. falciparum was determined using a ^3H-hypoxanthine incorporation assay ([Desjardins et al., 1979]), using the drug sensitive NF54 strain ([Ponnudurai et al., 1981]). Compounds were dissolved in DMSO at 10 mg/ml and further diluted in medium before addition to parasite cultures incubated in RPMI 1640 medium without hypoxanthine, supplemented with HEPES (5.94 g/L), NaHCO3 (2.1 g/L), neomycin (100 U/ml), Albumax^R (5 g/L), and washed human red cells A^+ at 2.5% haematocrit (0.3% parasitemia). Serial drug dilutions of 11 three-fold dilution steps covering a range from 100 to 0.002 μg/ml were prepared. The 96-well plates were incubated in a humidified atmosphere at 37°C; 4% CO2, 3% O2, 93% N2. After 48 h, 50 μl of ^3H-hypoxanthine (=0.5 μCi) was added to each well of the plate. The plates were incubated for a further 24 h under the same conditions. The plates were then harvested with a Betaplate™ cell harvester (Wallac, Zurich, Switzerland), the red blood cells transferred onto a glass fibre filter, and lysed with distilled water. The dried filters were inserted into a plastic foil with 10 ml of scintillation fluid and counted in a Betaplate™ liquid scintillation counter (Wallac, Zurich, Switzerland). IC50 values were calculated from sigmoidal inhibition curves by linear regression using Microsoft Excel. Chloroquine (Sigma C6628) was used as control. Assays were performed in two independent replicates at least.

[2] = tested on: L. donovani strain MHOM/ET/67/L82 axenic amastigotes; test: Activity against Leishmania donovani axenic amastigotes (resazurin); type: cell-based; settings: for Selectivity index (SI): IC50 in L6 cells divided by IC50 in L. donovani axenic amastigotes: L6 cells vs axenic L. donovani; for IC50: MHOM/ET/67/L82, pH 5.4, 70 h + 2 h resazurin, mean ± absolute deviation, at least two replicates, read-out: IC50 L. donovani Axenic
Procedure: Amastigotes of L. donovani strain MHOM/ET/67/L82 were grown under an atmosphere of 5% CO2 in air in axenic culture at 37°C in SM medium ([Cunningham, 1977]) at pH 5.4 supplemented with 10% heat-inactivated fetal bovine serum. 50 µL of culture medium was added in the wells of a 96-well plate and serial drug dilutions of eleven three-fold dilution steps covering a final range from 100 to 0.002 μg/ml were prepared. 50 µL culture medium with 2 × 10^5 amastigotes from axenic culture were added to each well. After 70 h of incubation the plates were inspected under an inverted microscope to assure growth of the controls and sterile conditions. 10 μl of resazurin (12.5 mg resazurin dissolved in 100 ml distilled water) were added to each well and the plates incubated for another 2 h. Then the plates were read with a Spectramax Gemini XS microplate fluorometer (Molecular Devices Cooperation, Sunnyvale, CA, USA) using an excitation wavelength of 536 nm and an emission wavelength of 588 nm. Data were analyzed using the software Softmax Pro (Molecular Devices Cooperation, Sunnyvale, CA, USA). Decrease of fluorescence (= inhibition) was expressed as percentage of the fluorescence of untreated control cultures and plotted against the drug concentrations. From the sigmoidal inhibition curves the IC50 values were calculated. Miltefosine was used as positive control drug. Assays were performed in two independent replicates at least.

[3] = tested on: L. donovani amastigotes in mouse peritoneal macrophages; test: Activity against Leishmania donovani intramacrophage amastigotes (high-content imaging); type: cell-based; settings: amastigotes in mouse peritoneal macrophages, 96 h, read-out: IC50 L. donovani Intramacrophage
Procedure: (§1) Macrophages were isolated from the mouse (CDI) peritoneal cavity ([Zhang et al., 2008]) using 2% starch solution as eliciting agent injected 2 day prior to cell harvest. Animal work was carried out according to the rules and regulations for the protection of animal rights (“Tierschutzverordnung”) of the Swiss “Bundesamt für Veterinärwesen” (License number 2374). Mouse peritoneal macrophages (4 × 10^4 in 100 µL RPMI 1640 medium with 10% heat-inactivated FBS) were seeded into wells of a 96-well plate. After 24 h, 2 × 10^5 amastigote L. donovani in 100 µL were added. The amastigotes were taken from an axenic amastigote culture grown at pH 5.4. The medium containing free amastigote forms was removed after 24 h and replaced with fresh medium. The washing step was repeated and afterward the serial drug dilution was prepared with at least 6 dilution steps. Compounds were dissolved in DMSO at 10 mg/ml and further diluted in medium. After 96 h of incubation at 37°C under a 5% CO2 atmosphere, the medium was removed, and cells were fixed by adding 50 µl 4% formaldehyde solution followed by a staining with a 5 µM DRAQ5 solution. Plates were imaged in ImageXpress XLS (MD) microscope using a 20× air objective (635 nm excitation: 690/50 emission). 9 images were collected per well. Automated image analysis was performed with a script developed on Meta Xpress Software (MD). Three outputs were provided for each well: i) number of host cell nuclei; ii) numbers of infected and non-infected host cells; iii) number of parasite nuclei per infected host cell. The IC50 values were calculated based on the infection rate and the numbers of intracellular amastigotes. The cytotoxicity to macrophages was determined in parallel, and IC50 values were calculated based on the numbers of surviving, uninfected macrophages. Miltefosine was used as control. Assays were performed in two independent replicates at least.

[4] = tested on: T. b. rhodesiense STIB 900 bloodstream forms; test: Activity against Trypanosoma brucei rhodesiense STIB900 (resazurin); type: cell-based; settings: for Selectivity index (SI): IC50 in L6 cells divided by IC50 in T. b. rhodesiense: L6 cells vs T. b. rhodesiense STIB 900; for IC50: STIB 900 bloodstream forms, 70 h + resazurin, mean ± absolute deviation
Procedure: The stock was originally isolated from a patient and adapted to axenic culture conditions after several mouse passages and cloned. Minimum Essential Medium (50 µl) supplemented with 25 mM HEPES, 1 g/L additional glucose, 1% MEM non-essential amino acids (100×), 0.2 mM 2-mercaptoethanol, 1 mM Na-pyruvate ([Baltz et al., 1985]) and 15% heat inactivated horse serum was added to each well of a 96-well microtiter plate. Serial drug dilutions of eleven 3-fold dilution steps covering a range from 100 to 0.002 μg/ml were prepared. Then 4 × 10^3 bloodstream forms of T. b. rhodesiense STIB 900 in 50 µL were added to each well and the plate incubated for 70 h at 37°C and under a 5% CO2 atmosphere. 10 µL resazurin solution (resazurin, 12.5 mg in 100 ml double-distilled water) was then added to each well and incubation continued for a further 2–4 h ([Räz et al., 1997]). Plates were read with a Spectramax Gemini XS microplate fluorometer (Molecular Devices Cooperation, Sunnyvale, CA, USA) using an excitation wavelength of 536 nm and an emission wavelength of 588 nm. […] Melarsoprol (Arsobal Sanofi-Aventis, received from WHO) was used as control. Assays were performed in two independent replicates at least.

[5] = Cytotoxicity to macrophages determined in parallel to the intramacrophage assay; type: cell-based; settings: CDI, surviving, uninfected mouse peritoneal macrophages
Procedure: as §1

[6] = In vitro cytotoxicity with L-6 cells (resazurin); type: cell-based, rat; settings: rat, L6 cells, 70 h + 2 h resazurin, mean ± absolute deviation
Procedure: Assays were performed in 96-well microtiter plates, each well containing 100 µl of RPMI 1640 medium supplemented with 1% L-glutamine (200 mM) and 10% fetal bovine serum, and 4000 L-6 cells (a primary cell line derived from rat skeletal myoblasts) ([Ahmed et al., 1994]). Serial drug dilutions of 11 three-fold dilution steps covering a range from 100 to 0.002 μg/ml were prepared 24 h post seeding L-6 cells. The plates were incubated for 70 h and inspected under an inverted microscope to assure growth of the controls and sterile conditions. 10 µl of resazurin was then added to each well and the plates incubated for another 2 h. Then the plates were read with a Spectramax Gemini XS microplate fluorometer (Molecular Devices Cooperation, Sunnyvale, CA, USA) using an excitation wavelength of 536 nm and an emission wavelength of 588 nm. The IC50 values were calculated by linear regression and four-parameter logistic regression from the sigmoidal dose inhibition curves using SoftmaxPro software (Molecular Devices Cooperation, Sunnyvale, CA, USA). Podophyllotoxin (Sigma P4405) was used as positive control. All assays were performed in two independent replicates at least. Activities of all compounds were expressed in µM using the formula: […]

[7] = Leishmania donovani, pH 5.4, axenic amastigotes
[8] = Leishmania donovani, Peritoneal macrophage
[9] = Plasmodium falciparum, NF54, 72 h, NF54 drug sensitive strain, erythrocytic stages, 72 h, mean ± absolute deviation
[10] = NF54 drug sensitive strain, erythrocytic stages, 72 h, mean ± absolute deviation

Row | Molecule | IC50 ([1]; Plasmodium falciparum, NF54, 72 h) | Selectivity index (SI): IC50 in L6 cells divided by IC50 in L. donovani axenic amastigotes [2] | IC50 [2, 7] | IC50 [3, 8] | Selectivity index (SI): IC50 in L6 cells divided by IC50 in T. b. rhodesiense [4] | IC50 ([4]; Trypanosoma brucei, 70 h) | Selectivity index (SI): IC50 in L6 cells divided by IC50 in P. falciparum [1] | IC50 [1, 9] | IC50 at 96 h [5] | IC50 [1, 10] | IC50 at 70 h [6] | IC50 at 70 h ([6]; L-6 cells (rat skeletal myoblasts)) | IC50 P. falciparum [1, 10] | IC50 ([2]; axenic amastigotes) | IC50 [3] | IC50 [4]
1 | CCN(CC)CCCC(C)Nc1ccnc2cc(Cl)ccc12 (stereo not shown) [Chloroquine, reference compound] | 0.01 ± 0.002 µM | – | – | – | – | – | – | – | – | – | – | – | – | – | – | –
2 | COc1ccc(-c2oc3cc(O)cc(O)c3c(=O)c2OC)cc1OC [Compound 1, Quercetin-3,3′,4′-trimethylether] | – | 9.8 | 15 to 22 µM | > 79.9 µM | 3.4 | 55.1 ± 13.2 µM | 4.4 | 42.1 ± 12.5 µM | 154 ± 19.3 µM | – | – | – | – | – | – | –
3 | COc1cc(O)c2c(=O)c(OC)c(-c3ccc(OC)c(O)c3)oc2c1 [Compound 2, Ayanin] | – | 12.2 | 8.2 ± 1.6 µM | > 95.9 µM | 8.9 | 11.2 ± 0.2 µM | 12.9 | 7 to 8 µM | 128 ± 3.5 µM | 7.8 ± 0.9 µM | – | – | – | – | – | –
4 | COc1cc(O)c2c(=O)c(OC)c(-c3ccc(OC)c(OC)c3)oc2c1 [Compound 3, Retusin] | – | 6.3 | 34.1 ± 4.7 µM | > 186 µM | 2.6 | > 80 µM | 9.2 | 23.4 ± 3.8 µM | 173 µM | – | 215 ± 4.7 µM | – | – | – | – | –
5 | O=C1C[C@@H](c2ccc(O)cc2)Oc2cc(O)cc(O)c21 [Compound 4, Naringenin] | – | 5.6 | 41.8 ± 9.3 µM | > 121 µM | 1.3 | – | 3.2 | 73.2 ± 5.9 µM | 333 ± 18.2 µM | – | – | 233 ± 36.9 µM | – | – | – | –
6 | COc1cc(O)c2c(=O)c(OC)c(-c3ccc(O)c(O)c3)oc2c1 [Compound 6, Quercetin-3,7-dimethylether] | – | 12.3 | 4.5 ± 0.3 µM | > 66.7 µM | 23.2 | 2.4 ± 0.5 µM | 7.6 | 7 to 8 µM | 102 ± 49.7 µM | 7.3 ± 0.6 µM | – | – | – | – | – | –
7 | COc1cc(C(=O)O)ccc1O [Compound 7, 3-Methoxy-4-hydroxybenzoic acid] | – | – | 153 ± 45.5 µM | > 595 µM | – | 38.6 ± 5.9 µM | – | 138 ± 12.2 µM | > 500 µM | – | 595 µM | – | least active | – | – | –
8 | CC(=O)O[C@H]1[C@H]2c3c(ccc4c(=O)cc(-c5ccccc5)oc34)O[C@H]2OC1(C)C [Compound 12, (-)-(3′′S,4′′R,5′′S)-Pseudosemiglabrin] | – | 4.1 | 18.9 ± 2.6 µM | > 84.2 µM | 2.1 | 37.5 ± 6.1 µM | 4.8 | ~20 µM | 145 ± 10.5 µM | 16.3 ± 2.7 µM | – | – | – | – | – | –
9 | O=c1c(O)c(-c2ccc(O)cc2)oc2cc(O)cc(O)c12 [Compound 13, Kaempferol] | – | 5.3 | 20.8 ± 1.7 µM | > 115 µM | 3.1 | 36.4 ± 8.7 µM | 2.1 | 53.1 ± 7.7 µM | 151 ± 18.8 µM | – | – | – | – | – | – | –
10 | CCCCCCCCCCCCCCCCOP(=O)([O-])OCC[N+](C)(C)C [Miltefosine, reference compound] | – | – | 0.5 ± 0.2 µM | 6.6 ± 0.3 µM | – | – | – | – | > 24.1 µM | – | – | – | – | – | – | –
11 | COc1cc([C@@H]2c3cc4c(cc3[C@H](O)[C@H]3COC(=O)[C@H]23)OCO4)cc(OC)c1OC [Podophyllotoxin, reference compound] | – | – | – | – | – | – | – | – | – | – | 0.03 ± 0.005 µM | – | – | – | – | –
12 | (+)-(7S,7′S,8R,8′R)-Pinoresinol [Compound 10] | – | 1.6 | – | – | 2.1 | – | – | – | – | > 140 µM | – | – | least active | > 150 µM and 151 µM | > 279 µM | 116.8 ± 0.3 µM
